What all share (type): cell-based
In one assay the test system is IL-6. Description: Inhibition of IL-6 production by stimulated human peripheral blood leukocytes in vitro. Conditions: for inhibition at 10 µM / inhibition at 50 µM: Homo sapiens, Leukocyte, read-out: Percentage of inhibition of IL-6 production. As to the method:
(§1) Test substances used in in vitro experiments were dissolved in dimethyl sulfoxide (DMSO) (Kemika, Croatia) at concentrations of 50 mM and 10 mM, and were further diluted to final concentrations of 50 μM and 10 μM in 1 mL Dulbecco's modified Eagle medium (DMEM) supplemented with 1% heat inactivated fetal bovine serum (FBS), 1% L-glutamine, 50 U/ml penicillin, 50 μg/ml streptomycin and 2.5 μg/mL Fungizone (amphotericin B). Media and all media supplements were purchased from Gibco, Australia, except the FBS was purchased from Sigma, USA.
(§2) Peripheral blood leukocytes (PBL) were obtained from venous blood of healthy volunteers by sedimentation on 2% dextran T-500 (Amersham Biosciences, USA) and subsequent centrifugations of leukocyte rich plasma.
(§3) Peripheral blood leukocytes (PBL), isolated as described above, were seeded in a 48-well plate at a concentration of 3 to 5×10^6 cell per well in culture medium consisting of RPMI 1640 medium (Institute of Immunology, Croatia) supplemented with 10% heat-inactivated fetal calf serum (FCS, Biowhittaker, USA), 100 U/ml penicillin (Gibco, Australia), 100 μg/ml streptomycin (Gibco, Australia) and 2 mM L-glutamine (Gibco, Australia), and preincubated with the test compounds for 2 h at 37° C., in an atmosphere of 5% CO2, and 90% humidity. Then, stimuli (Sigma, USA) were added to a final concentration of 2 μg/mL lipopolysaccharide (LPS), 1 μg/mL phorbol 12-myristate 13-acetate (PMA) or 120 μg/mL zymosan. Samples were incubated overnight under conditions described above. At the end of incubation, the supernatants were transferred to eppendorf tubes and centrifuged for 10 min at 1500×g. Concentrations of human TNF-α, IL-1β, IL-6 and IL-8 were determined in cell supernatants by sandwich ELISA, using capture and detection antibodies (R&D Systems, Minneapolis, Minn.) according to the manufacturer's recommendations.
(§4) Inhibition (as percentage) was calculated using the following formula: % inhibition=(1−concentration of cytokines in sample/concentration of cytokines in positive control)×100.
(§5) The positive control refers to LPS-, PMA- or zymosan-stimulated samples that were not preincubated with test compounds.

The next assay concerns IL-8. Description: Inhibition of IL-8 production by stimulated human peripheral blood leukocytes in vitro. Conditions: for inhibition at 10 µM / inhibition at 50 µM: Homo sapiens, Leukocyte, read-out: Percentage of inhibition of IL-8 production. On the procedure: as §1, §2, §3, §4, §5
For a further assay, the system named is TNF-α. Description: Inhibition of TNF-α production by stimulated human peripheral blood leukocytes in vitro. The conditions noted are these: for inhibition at 10 µM / inhibition at 50 µM: Homo sapiens, Leukocyte, read-out: Percentage of inhibition of TNF-α production. On the procedure: as §1, §2, §3, §4, §5
A further assay relates to IL-1α. Description: Inhibition of IL-1 production by stimulated human peripheral blood leukocytes in vitro. Conditions: for inhibition at 10 µM / inhibition at 50 µM: Homo sapiens, Leukocyte, read-out: Percentage of inhibition of IL-1α production.

Where two headings read alike, the source gives them in different places.

As to `CCC(=O)N(C)[C@H]1C[C@@H](C)O[C@@H](O[C@@H]2[C@@H](C)[C@H](O[C@H]3C[C@@](C)(OC)[C@@H](OC(=O)CCN(CC)CC)[C@H](C)O3)[C@@H](C)C(=O)O[C@H](CC)[C@@](C)(O)[C@H](O)[C@@H](C)NC(=O)[C@H](C)C[C@@]2(C)OC)[C@@H]1O` [Example 63, 3′-N-methyl-3′-N-propionyl-4″-O-(3-diethylaminopropionyl)-6-O-methyl-9a-aza-9a-homoerythromycin A], the “Percentage of inhibition of IL-6 production” value in the assay on IL-6 (10 μM, LPS-stimulated PBL) is 8%; in the assay with IL-6 (10 μM, PMA-stimulated PBL), 24%; in the assay with IL-6 (10 μM, zymosan-stimulated PBL) it was 0%; in the assay with IL-6 (50 μM, LPS-stimulated PBL), 60%; in the assay on IL-6 (50 μM, PMA-stimulated PBL) it was 62%; in the assay on IL-6 (50 μM, zymosan-stimulated PBL) it was 90%. Moreover, the “Percentage of inhibition of IL-8 production” value in the assay with IL-8 (10 μM, LPS-stimulated PBL) is 0%; in the assay with IL-8 (10 μM, PMA-stimulated PBL), 0%; in the assay on IL-8 (10 μM, zymosan-stimulated PBL) it was 0%; with IL-8 (50 μM, LPS-stimulated PBL), 36%; with IL-8 (50 μM, PMA-stimulated PBL), 3%; in the assay on IL-8 (50 μM, zymosan-stimulated PBL), 44%. In addition, the “Percentage of inhibition of TNF-α production” value in the assay on TNF-α (10 μM, LPS-stimulated PBL) was 0%; in the assay on TNF-α (10 μM, PMA-stimulated PBL), 21%; in the assay with TNF-α (10 μM, zymosan-stimulated PBL), 0%; in the assay on TNF-α (50 μM, LPS-stimulated PBL), 69%; in the assay with TNF-α (50 μM, PMA-stimulated PBL), 73%; in the assay with TNF-α (50 μM, zymosan-stimulated PBL), 87%. For the same compound, the “Percentage of inhibition of IL-1α production” value is recorded as 59% with IL-1α (10 μM, LPS-stimulated PBL); 52% in the assay on IL-1α (10 μM, PMA-stimulated PBL); 45% in the assay on IL-1α (10 μM, zymosan-stimulated PBL); 89% in the assay with IL-1α (50 μM, LPS-stimulated PBL); 81% in the assay on IL-1α (50 μM, PMA-stimulated PBL); 100% in the assay on IL-1α (50 μM, zymosan-stimulated PBL).

By inhibition is commonly meant the percentage by which the read-out fell short of the control. As for `CC[C@H]1OC(=O)[C@H](C)[C@@H](O[C@H]2C[C@@](C)(OC)C(OC(=O)CCN(CC)CC)[C@H](C)O2)[C@H](C)[C@@H](O[C@@H]2O[C@H](C)C[C@H](NC)[C@H]2O)[C@](C)(O)C[C@@H](C)CN(C)[C@H](C)[C@@H](O)[C@]1(C)O` (stereo partly drawn) [Example 90, 3′-N-Demethyl-4″-O-(3-diethylaminopropionyl)-azithromycin], the inhibition at 10 µM with IL-6 (10 μM, LPS-stimulated PBL) turned out to be 67%; with IL-6 (10 μM, PMA-stimulated PBL), 46%; in the assay with IL-6 (10 μM, zymosan-stimulated PBL), 60%; in the assay with IL-8 (10 μM, LPS-stimulated PBL), 4%; with IL-8 (10 μM, PMA-stimulated PBL), 0%; with IL-8 (10 μM, zymosan-stimulated PBL), 24%. The inhibition at 10 µM in the assay on TNF-α (10 μM, LPS-stimulated PBL) turned out to be 78%; with TNF-α (10 μM, PMA-stimulated PBL), 40%; with TNF-α (10 μM, zymosan-stimulated PBL), 53%; in the assay with IL-1α (10 μM, LPS-stimulated PBL), 62%; in the assay on IL-1α (10 μM, PMA-stimulated PBL), 61%; with IL-1α (10 μM, zymosan-stimulated PBL), 82%. Besides, the inhibition at 50 µM in the assay with IL-6 (50 μM, LPS-stimulated PBL) is 88%; in the assay on IL-6 (50 μM, PMA-stimulated PBL), 90%; in the assay on IL-6 (50 μM, zymosan-stimulated PBL) it was 100%; in the assay on IL-8 (50 μM, LPS-stimulated PBL), 38%; in the assay with IL-8 (50 μM, PMA-stimulated PBL) it was 53%; with IL-8 (50 μM, zymosan-stimulated PBL), 88%. Also, the inhibition at 50 µM in the assay with TNF-α (50 μM, LPS-stimulated PBL) was found to be 100%; with TNF-α (50 μM, PMA-stimulated PBL), 95%; in the assay with TNF-α (50 μM, zymosan-stimulated PBL), 94%; with IL-1α (50 μM, LPS-stimulated PBL), 91%; in the assay on IL-1α (50 μM, PMA-stimulated PBL), 57%; in the assay on IL-1α (50 μM, zymosan-stimulated PBL), 100%.

As for `CC[C@H]1OC(=O)[C@H](C)[C@@H](O[C@H]2C[C@@](C)(OC)[C@@H](OCCCN(CC)CC)[C@H](C)O2)[C@H](C)[C@@H](O[C@@H]2O[C@H](C)C[C@H](N(C)C)[C@H]2O)[C@](C)(O)C[C@@H](C)CN(C)[C@H](C)[C@H]2OC(=O)O[C@@]21C` [Example 95, 4″-O-(3-diethylamino-propyl)-azithromycin 11,12-cyclic carbonate], the “Percentage of inhibition of IL-6 production” value in the assay with IL-6 (10 μM, LPS-stimulated PBL) was found to be 1%; in the assay on IL-6 (10 μM, PMA-stimulated PBL) it was 17%; with IL-6 (10 μM, zymosan-stimulated PBL), 18%; with IL-6 (50 μM, LPS-stimulated PBL), 8%; with IL-6 (50 μM, PMA-stimulated PBL) it was 56%; in the assay on IL-6 (50 μM, zymosan-stimulated PBL), 58%. In addition, the “Percentage of inhibition of IL-8 production” value came to 0% in the assay with IL-8 (10 μM, LPS-stimulated PBL); 0% in the assay with IL-8 (10 μM, PMA-stimulated PBL); 5% with IL-8 (10 μM, zymosan-stimulated PBL); 16% in the assay on IL-8 (50 μM, LPS-stimulated PBL); 21% in the assay on IL-8 (50 μM, PMA-stimulated PBL); 33% in the assay on IL-8 (50 μM, zymosan-stimulated PBL). The “Percentage of inhibition of TNF-α production” value was determined as 12% in the assay with TNF-α (10 μM, LPS-stimulated PBL); 34% in the assay on TNF-α (10 μM, PMA-stimulated PBL); 47% in the assay on TNF-α (10 μM, zymosan-stimulated PBL); 30% in the assay on TNF-α (50 μM, LPS-stimulated PBL); 50% in the assay with TNF-α (50 μM, PMA-stimulated PBL); 63% in the assay on TNF-α (50 μM, zymosan-stimulated PBL). In addition, the “Percentage of inhibition of IL-1α production” value stood at 0% with IL-1α (10 μM, LPS-stimulated PBL); 25% with IL-1α (10 μM, PMA-stimulated PBL); 38% in the assay with IL-1α (10 μM, zymosan-stimulated PBL); 0% in the assay with IL-1α (50 μM, LPS-stimulated PBL); 75% with IL-1α (50 μM, PMA-stimulated PBL); 42% in the assay with IL-1α (50 μM, zymosan-stimulated PBL).

For `CC[C@H]1OC(=O)[C@H](C)[C@@H](O[C@H]2C[C@@](C)(OC)[C@@H](OCCCN(CC)CC)[C@H](C)O2)[C@H](C)[C@@H](O[C@@H]2O[C@H](C)C[C@H](N(C)C)[C@H]2O)[C@](C)(O)C[C@@H](C)CN(C)[C@H](C)[C@@H](O)[C@]1(C)O` [Example 96, 4″-O-(3-diethylamino-propyl)-azithromycin], the inhibition at 10 µM in the assay on IL-6 (10 μM, LPS-stimulated PBL) was 0%; with IL-6 (10 μM, PMA-stimulated PBL) it was 27%; in the assay with IL-6 (10 μM, zymosan-stimulated PBL), 17%; with IL-8 (10 μM, LPS-stimulated PBL), 0%; in the assay on IL-8 (10 μM, PMA-stimulated PBL) it was 0%; in the assay on IL-8 (10 μM, zymosan-stimulated PBL) it was 6%. The inhibition at 10 µM with TNF-α (10 μM, LPS-stimulated PBL) is 3%; with TNF-α (10 μM, PMA-stimulated PBL), 14%; with TNF-α (10 μM, zymosan-stimulated PBL), 21%; with IL-1α (10 μM, LPS-stimulated PBL) it was 0%; in the assay with IL-1α (10 μM, PMA-stimulated PBL) it was 32%; with IL-1α (10 μM, zymosan-stimulated PBL) it was 36%. Also, the inhibition at 50 µM with IL-6 (50 μM, LPS-stimulated PBL) amounted to 3%; in the assay with IL-6 (50 μM, PMA-stimulated PBL), 64%; in the assay with IL-6 (50 μM, zymosan-stimulated PBL) it was 76%; in the assay with IL-8 (50 μM, LPS-stimulated PBL), 17%; in the assay on IL-8 (50 μM, PMA-stimulated PBL), 12%; in the assay on IL-8 (50 μM, zymosan-stimulated PBL), 40%. For the same compound, the inhibition at 50 µM in the assay with TNF-α (50 μM, LPS-stimulated PBL) worked out at 13%; in the assay on TNF-α (50 μM, PMA-stimulated PBL), 48%; in the assay on TNF-α (50 μM, zymosan-stimulated PBL), 61%; in the assay on IL-1α (50 μM, LPS-stimulated PBL) it was 0%; in the assay on IL-1α (50 μM, PMA-stimulated PBL) it was 81%; with IL-1α (50 μM, zymosan-stimulated PBL) it was 88%.

The values above are taken from patent US8080529B2, “Macrolides with anti-inflammatory activity” (Glaxo Group Limited, priority 2005, dated 2011).
